Assay results taken from paper PMC9820592, “Novel Chiral Ru(II) Complexes as Potential c-myc G-quadruplex DNA Stabilizers Inducing DNA Damage to Suppress Triple-Negative Breast Cancer Progression” (International Journal of Molecular Sciences, 2022).
Several values for one entry are separate records, joined by “and”; a condition that tells them apart may be missing. Equal entries are not always repeated.

Legend:
[1] = system: MDA-MB-231 cells; experiment: Wound-healing assay; format: cell-based, human
Experimental: MDA-MB-231 cells (1 × 10^5 cells/well) were inoculated in a 6-well cell culture plate marked on the back until a single layer of cells covered more than 90% of the bottom of the culture plate, and a 200 µL pipette was used to scratch the culture. Different concentrations of the complexes (0, 2.5, 5, and 10 µM) were applied for 72 h. Migrating cells in the same field of view were observed and recorded every 24 h, and the average cell migration rate was calculated in three fields for every group.

[2] = system: MDA-MB-231 cells; experiment: Flow cytometry, apoptosis (Annexin V-FITC/PI); format: cell-based, human; conditions: 72 h, control 2.77%
Experimental: MDA-MB-231 cells were treated with different concentrations of the complexes (0, 10, 20, and 40 μM) for 72 h, then collected and stained with an Annexin V-FITC/PI Apoptosis Detection Kit I (BD, 556547). The MDA-MB-231 cells were fixed with 70% ethanol at 4 °C for 30 min, and then collected and stained with PI/RNase Staining Buffer (BD, 550825). The cells were analyzed by flow cytometry (Beckman, CytoFLEX). All experiments were repeated three times.

[3] = system: MDA-MB-231 cells; experiment: Comet assay; format: cell-based, human; conditions: 5 and 10 μM
Experimental: DNA damage was detected by single-cell gel electrophoresis by using the Comet assay kit (Trevigen). MDA-MB-231 cells were added to a culture dish containing the medium. After treatment with different concentrations of the complexes (0, 5, and 10 μM) at 37 °C for 72 h, the cells were collected and washed with PBS three times. A solution of the cell suspension and melted low-melting-point agarose gel was mixed at a volume ratio of 1:7, and the equilateral sample was immediately transferred to a Comet Slide TM slide. The slides were washed twice with PBS, placed into an electrophoresis tank containing comet electrophoresis solution, and electrophoresed at 25 V for 30 min. After electrophoresis, the slides were washed twice with PBS. Finally, the cells were stained with EB and observed under a fluorescence microscope. Cells were randomly selected from each slide to take photos, and the tail moment was analyzed.

[4] = system: MDA-MB-231 cells; experiment: ICP detection of Ru content in cells; format: cell-based, human; conditions: 24 h, control 0.4
Experimental: MDA-MB-231 cells were seeded in 10 cm cell culture dishes. After cell adherence, the cells were treated with the drug (0, 2.5, 5, and 10 μM) for 24 h. After 24 h, the cells were washed with PBS three times and collected by trypsin. The number of collected cells was counted by a cell counter. Then, the cells were digested in 1 mL HNO3 solution by microwave digestion at 120 °C for 3 min, and 1 mL of this solution was transferred to a 5 mL volumetric flask, diluted with distilled water to volume, and mixed. The Ru content of these solutions was analyzed by an ICP optical emission spectrometer (NCS, Plasma 2000). All measurements were repeated three times.

[5] = system: A549 cells; experiment: MTT assay, A549 cells; format: cell-based, human; conditions: 72 h, read-out: Inhibitory Effect (IC50/μM) A549
Experimental: (§1) Liver cancer HepG2 cells, lung cancer A549 cells, breast cancer MCF-7 and MDA-MB-231 cells, human nasopharyngeal carcinoma CNE-1 cells, and human immortalized keratinocyte HaCaT cells were seeded in 96-well plates (5 × 10^3 cells per well) and cultured at 37 °C and 5% CO2 for 24 h. Cells were treated with different concentrations of the complexes (0, 1.5625, 3.125, 6.25, 12.5, 25, 50, and 100 µM) for 72 h. After adding 20 µL MTT (5 mg/mL) solution to each well, the cells were incubated for 4 h, and then 150 µL DMSO was added to each well. The optical density of each well was detected by a microplate reader at a wavelength of 570 nm. The cell survival rate (%) = A(experimental group)/A(control group) × 100%, and the IC50 value was analyzed and calculated based on the survival rate.

[6] = system: subintestinal vessels (SIVs); experiment: Angiogenic assay in Tg (fli1: EGFP) zebrafish; format: in vivo; conditions: compared with control group
Experimental: (§2) The zebrafish model of transplanted breast cancer was constructed in accordance with the methods in the literature. Juvenile 48 h old breast cancer model zebrafish were placed in 48-well plates (n = 10), and 0.2 mL aquaculture water without or with Δ−3 (0, 2.5, 5, and 10 μM) was added for culture. Images were captured every 24 h using a fluorescence microscope to study the inhibitory effect of Δ−3 on zebrafish with breast cancer. In addition, the mean number of sprout and mean length of sprout in subintestinal vessels (SIVs) were analyzed by ImageProPlus software. The ethical protocols for the in vivo research on zebrafish complied with relevant laws.

[7] = system: MDA-MB-231 cells; experiment: Zebrafish xenograft breast cancer model; format: in vivo; conditions: 2.5, 5, and 10 μM, 72 h
Experimental: as §2

[8] = system: HepG2 cells; experiment: MTT assay, HepG2 cells; format: cell-based, human; conditions: 72 h, read-out: Inhibitory Effect (IC50/μM) HepG2
Experimental: as §1

[9] = system: HaCaT cells; experiment: MTT assay, normal HaCaT keratinocytes; format: cell-based; conditions: 72 h, normal human keratinocytes, read-out: Inhibitory Effect (IC50/μM) HaCaT
Experimental: as §1

[10] = system: MDA-MB-231 cells; experiment: FITC-gelatine invasion assay; format: cell-based, human; conditions: 24 h
Experimental: An appropriate amount of FITC–gelatine glue was pipetted to cover the inner ring of the confocal cuvette, added to 0.5% glutaraldehyde for at least 30 min after solidification, and activated with 5 mg·mL^−1 sodium borohydride. Subsequently, 2 mL of cell suspension (5 × 10^4 cells) treated with different drug concentrations (0, 2.5, 5, and 10 µM) was added to each dish. The mixture was incubated at 37 °C for 24 h, and then the cells in each dish were fixed with 4% paraformaldehyde, incubated with phalloidin staining solution for 30 min and DAPI for 5 min, and imaged with a fluorescence microscope in the dark.

Substance: Δ-[Ru(bpy)2(3-NBEDPPZ)](ClO4)2 [Δ−3]
- migration rate (wound healing) ([1]; 10 μM, different treatment times): less than half that of the control
- migration of cells (wound healing) ([1]; 2.5 and 5 μM): inhibited inconspicuously
- proportion of apoptotic cells ([2]; 10 μM): 5.39%
- proportion of apoptotic cells ([2]; 20 μM): 7.95%
- proportion of apoptotic cells ([2]; 40 μM): 16.27%
- DNA damage (comet appearance) [3]: cometary shapes appeared
- Ru content in cells ([4]; 2.5 μM): 0.52 ng/mL per 1 × 10^4 cells
- Ru content in cells ([4]; 5 μM): 1.82 ng/mL per 1 × 10^4 cells
- Ru content in cells ([4]; 10 μM): 2.91 ng/mL per 1 × 10^4 cells
- IC50 [5]: 24.7 ± 0.28 µM
- number and length of SIVs [6]: significantly decreased
- number of MDA-MB-231 cells in zebrafish [7]: significantly lower than that of the control
- IC50 [8]: 37.8 ± 0.6 µM
- IC50 [9]: 70.9 µM and 71 µM
- degraded areas (black holes) on FITC-gelatine ([10]; 10 μM): did not result in a black hole
- number of degraded areas on FITC-gelatine ([10]; 2.5 and 5 μM, control six degraded areas): markedly reduced
